Source: ChEMBL document CHEMBL4145446, “Development of tacrine-bifendate conjugates with improved cholinesterase inhibitory and pro-cognitive efficacy and reduced hepatotoxicity” (Eur J Med Chem, 2018)
Calls of active or inactive are those of the source. The rule behind the calls is not given here.

Columns and labels:
Acetylcholinesterase = Acetylcholinesterase (Electrophorus electricus, UniProt O42275); assay: Inhibition of electric eel AChE using acetylthiocholine chloride as substrate preincubated for 15 mins followed by substrate addition measured every minute by Ellman's method
Cholinesterase = Cholinesterase (Equus caballus, UniProt P81908); assay: Inhibition of equine serum BuChE using butyrylthiocholine chloride as substrate preincubated for 15 mins followed by substrate addition measured every minute by Ellman's method
[1] = Cytotoxicity against human HepG2 cells assessed as inhibition of cell viability at 1 uM by MTT assay relative to control; type: cell-based; details: read-out: INH
[2] = Cytotoxicity against human HepG2 cells assessed as inhibition of cell viability at 10 uM by MTT assay relative to control; type: cell-based; details: read-out: INH
[3] = Cytotoxicity against human HepG2 cells assessed as inhibition of cell viability at 50 uM by MTT assay relative to control; type: cell-based; details: read-out: INH
[4] = Cytotoxicity against rat PC12 cells assessed as inhibition of cell viability at 1 uM by MTT assay relative to control; type: cell-based, PC-12; details: read-out: INH
[5] = Cytotoxicity against rat PC12 cells assessed as inhibition of cell viability at 10 uM by MTT assay relative to control; type: cell-based, PC-12; details: read-out: INH
[6] = Cytotoxicity against rat PC12 cells assessed as inhibition of cell viability at 50 uM by MTT assay relative to control; type: cell-based, PC-12; details: read-out: INH
[7] = biological target: Acetylcholinesterase (Electrophorus electricus) (UniProt O42275); assay: Inhibition of electric eel AChE at 50 uM using acetylthiocholine chloride as substrate preincubated for 15 mins followed by substrate addition measured every minute by Ellman's method
[8] = biological target: Cholinesterase (Equus caballus) (UniProt P81908); assay: Inhibition of equine serum BuChE at 50 uM using butyrylthiocholine chloride as substrate preincubated for 15 mins followed by substrate addition measured every minute by Ellman's method
Mus musculus [9] = assay: Hepatotoxicity in Kunming mouse assessed as histomorphological changes in liver at 106 mg/kg, ig after 48 hrs by H and E staining based assay; type: toxicity, organism-based; details: in vivo, po
Mus musculus [10] = assay: Hepatotoxicity in Kunming mouse assessed as inflammatory cell infiltration in liver at 35 mg/kg, ig cotreated with THA after 48 hrs by H and E staining based assay; type: toxicity, organism-based; details: in vivo, po
Mus musculus [11] = assay: Hepatotoxicity in Kunming mouse assessed as serum ALT level at 106 mg/kg, ig after 48 hrs by colorimetric method (reference value: 42.7 +/- 6.3 U/L); type: toxicity, organism-based; details: in vivo, po
Mus musculus [12] = assay: Hepatotoxicity in Kunming mouse assessed as serum ASAT level at 106 mg/kg, ig after 48 hrs by colorimetric method (reference value: 101.5 +/- 22.3 U/L); type: toxicity, organism-based; details: in vivo, po
Mus musculus [13] = assay: Hepatotoxicity in Kunming mouse assessed as serum ALT level at 106 mg/kg, ig cotreated with THA after 48 hrs by colorimetric method (reference value: 42.7 +/- 6.3 U/L); type: toxicity, organism-based; details: in vivo, po
Mus musculus [14] = assay: Hepatotoxicity in Kunming mouse assessed as serum ASAT level at 106 mg/kg, ig cotreated with THA after 48 hrs by colorimetric method (reference value: 101.5 +/- 22.3 U/L); type: toxicity, organism-based; details: in vivo, po
[15] = biological target: Acetylcholinesterase (Electrophorus electricus) (UniProt O42275); assay: Mixed-type inhibition of electric eel AChE at 25 to 100 nM using acetylthiocholine chloride as substrate preincubated for 15 mins followed by substrate addition by Lineweaver-Burk plot analysis
[16] = biological target: Amyloid-beta precursor protein (Homo sapiens) (UniProt P05067); assay: Inhibition of human self-induced amyloid beta (1 to 42) aggregation at 20 uM after 48 hrs by uranyl acetate staining based TEM analysis
L02 [17] = assay: Cytotoxicity against human HL7702 cells assessed as reduction in cell viability at 1 to 10 uM by MTT assay; type: cell-based; details: l02, 10 µM
L02 [18] = assay: Induction of apoptosis in human HL7702 cells at 10 uM in presence of PI3K inhibitor LY294002 by FITC staining based flow cytometry relative to control; type: cell-based; details: l02, 10 µM
Mus musculus [19] = assay: Hepatotoxicity in Kunming mouse assessed as increase in serum ALT level at 106 mg/kg, ig after 48 hrs by colorimetric method relative to control; type: toxicity, organism-based; details: in vivo, po
Mus musculus [20] = assay: Hepatotoxicity in Kunming mouse assessed as increase in serum ASAT level at 106 mg/kg, ig after 48 hrs by colorimetric method relative to control; type: toxicity, organism-based; details: in vivo, po
Mus musculus [21] = assay: Cognition enhancing effect in ICR mouse model of scopalamine-induced memory impairment assessed as improvement in target quadrant preference at 20 umol equiv/kg, po pretreated for 30 mins followed by scopalamine treatment measured on day 15 by Morris water maze test; type: functional, organism-based
Mus musculus [22] = assay: Effect on spatial memory performance in ICR mouse model of scopalamine-induced memory impairment assessed as total distance travelled at 20 umol equiv/kg, po pretreated for 30 mins followed by scopalamine treatment measured for 90 secs by Morris water maze test; type: ADME, organism-based; details: 0.025 h
Mus musculus [23] = assay: Effect on spatial memory performance in ICR mouse model of scopalamine-induced memory impairment assessed as swimming speed at 20 umol equiv/kg, po pretreated for 30 mins followed by scopalamine treatment measured for 90 secs by Morris water maze test; type: ADME, organism-based; details: 0.025 h

Chain of Cholinesterase (P81908 whole entry): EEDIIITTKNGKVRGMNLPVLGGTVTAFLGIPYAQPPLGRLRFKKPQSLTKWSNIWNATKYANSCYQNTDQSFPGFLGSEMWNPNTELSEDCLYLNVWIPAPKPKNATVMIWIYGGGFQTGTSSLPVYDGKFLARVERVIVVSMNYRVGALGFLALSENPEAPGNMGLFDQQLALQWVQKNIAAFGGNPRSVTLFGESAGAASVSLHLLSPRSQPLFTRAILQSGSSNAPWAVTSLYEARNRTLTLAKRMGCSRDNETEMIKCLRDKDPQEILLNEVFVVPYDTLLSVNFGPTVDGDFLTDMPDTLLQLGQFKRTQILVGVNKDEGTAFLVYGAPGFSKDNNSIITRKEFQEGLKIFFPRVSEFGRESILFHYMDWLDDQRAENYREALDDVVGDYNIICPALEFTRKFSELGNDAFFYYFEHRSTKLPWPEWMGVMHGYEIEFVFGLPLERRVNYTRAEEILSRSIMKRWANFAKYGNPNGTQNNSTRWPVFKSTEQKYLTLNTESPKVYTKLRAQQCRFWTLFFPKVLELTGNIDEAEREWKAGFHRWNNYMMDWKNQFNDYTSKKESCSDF
Chain of Acetylcholinesterase (O42275 whole entry): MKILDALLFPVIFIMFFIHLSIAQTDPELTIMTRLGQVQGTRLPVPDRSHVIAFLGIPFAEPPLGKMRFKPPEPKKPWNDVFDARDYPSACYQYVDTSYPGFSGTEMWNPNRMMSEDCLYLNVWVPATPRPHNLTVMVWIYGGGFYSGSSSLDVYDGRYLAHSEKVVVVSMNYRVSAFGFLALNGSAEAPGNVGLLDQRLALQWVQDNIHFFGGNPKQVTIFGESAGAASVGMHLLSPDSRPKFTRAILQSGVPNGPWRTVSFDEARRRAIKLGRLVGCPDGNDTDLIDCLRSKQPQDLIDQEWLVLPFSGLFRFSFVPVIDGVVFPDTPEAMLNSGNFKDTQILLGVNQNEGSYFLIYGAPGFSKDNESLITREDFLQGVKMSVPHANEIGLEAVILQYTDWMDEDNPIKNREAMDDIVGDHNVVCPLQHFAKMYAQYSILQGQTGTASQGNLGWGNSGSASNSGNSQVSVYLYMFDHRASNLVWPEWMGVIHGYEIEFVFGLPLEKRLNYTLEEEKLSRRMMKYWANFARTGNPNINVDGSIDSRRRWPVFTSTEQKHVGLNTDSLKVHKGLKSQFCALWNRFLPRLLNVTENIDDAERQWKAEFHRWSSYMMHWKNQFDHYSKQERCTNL
Chain of Amyloid-beta precursor protein (Homo sapiens) (P05067 whole entry): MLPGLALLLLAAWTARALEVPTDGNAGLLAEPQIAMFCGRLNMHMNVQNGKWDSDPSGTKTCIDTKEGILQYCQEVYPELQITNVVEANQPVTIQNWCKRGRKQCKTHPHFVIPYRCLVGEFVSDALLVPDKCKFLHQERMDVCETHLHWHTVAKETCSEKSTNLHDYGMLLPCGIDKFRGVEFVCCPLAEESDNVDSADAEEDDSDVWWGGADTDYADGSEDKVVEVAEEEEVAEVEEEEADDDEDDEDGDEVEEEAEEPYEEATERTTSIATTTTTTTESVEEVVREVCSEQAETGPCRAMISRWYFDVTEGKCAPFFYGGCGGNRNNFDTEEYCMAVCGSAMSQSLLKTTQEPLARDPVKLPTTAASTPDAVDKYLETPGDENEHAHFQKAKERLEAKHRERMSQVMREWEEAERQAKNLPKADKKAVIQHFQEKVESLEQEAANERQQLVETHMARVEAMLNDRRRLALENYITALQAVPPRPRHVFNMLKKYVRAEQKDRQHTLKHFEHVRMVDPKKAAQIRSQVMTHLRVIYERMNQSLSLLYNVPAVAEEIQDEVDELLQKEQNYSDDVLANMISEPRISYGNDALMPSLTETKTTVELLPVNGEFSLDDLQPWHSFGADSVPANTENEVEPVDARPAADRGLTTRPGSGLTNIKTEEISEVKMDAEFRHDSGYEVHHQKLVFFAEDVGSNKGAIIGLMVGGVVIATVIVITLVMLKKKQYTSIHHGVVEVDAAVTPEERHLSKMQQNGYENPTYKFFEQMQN
Chain of Acetylcholinesterase (Electrophorus electricus) (O42275 24-633 limits assumed): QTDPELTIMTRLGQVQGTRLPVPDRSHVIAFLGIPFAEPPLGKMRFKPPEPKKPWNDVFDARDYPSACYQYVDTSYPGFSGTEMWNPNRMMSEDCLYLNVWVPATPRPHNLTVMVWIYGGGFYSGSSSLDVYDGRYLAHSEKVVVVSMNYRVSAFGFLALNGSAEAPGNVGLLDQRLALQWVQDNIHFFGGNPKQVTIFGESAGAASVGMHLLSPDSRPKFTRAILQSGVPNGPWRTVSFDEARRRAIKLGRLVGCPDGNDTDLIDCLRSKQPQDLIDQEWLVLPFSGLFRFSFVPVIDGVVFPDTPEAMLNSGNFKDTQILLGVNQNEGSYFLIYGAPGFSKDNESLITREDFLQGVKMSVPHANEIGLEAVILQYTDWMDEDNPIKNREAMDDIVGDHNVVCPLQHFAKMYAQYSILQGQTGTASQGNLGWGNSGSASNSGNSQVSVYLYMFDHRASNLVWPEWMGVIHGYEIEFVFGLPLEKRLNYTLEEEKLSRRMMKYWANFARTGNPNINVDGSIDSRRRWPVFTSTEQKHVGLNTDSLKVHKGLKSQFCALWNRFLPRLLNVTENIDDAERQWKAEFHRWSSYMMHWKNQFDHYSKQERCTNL
Chain of Cholinesterase (Equus caballus) (P81908 whole entry): as the sequence (P81908 whole entry) above

For `COC(=O)c1cc(OC)c2c(c1-c1c(C(=O)NCCCCNc3c4c(nc5ccccc35)CCCC4)cc(OC)c3c1OCO3)OCO2`, the IC50 (Acetylcholinesterase) was 923 nM, the IC50 (Cholinesterase) was 75.5 nM and the cytotoxicity at 1 µM [1] was < 5%. For the same compound, the cytotoxicity at 10 µM [2] was 11.9%, the cytotoxicity at 50 µM [3] was 19.5% and the cytotoxicity at 1 µM [4] was < 5%. The cytotoxicity at 10 µM [5] was < 5% and the cytotoxicity at 50 µM [6] was 19.3%.

With `COC(=O)c1cc(OC)c2c(c1-c1c(C(=O)OC)cc(OC)c3c1OCO3)OCO2` [BIFENDATE] the IC50 (Acetylcholinesterase) was > 50000 nM, the IC50 (Cholinesterase) was > 50000 nM and the inhibition [7] was “inactive”. For the same compound, the inhibition [8] was “inactive”, the cytotoxicity at 1 µM [1] was < 5% and the cytotoxicity at 10 µM [2] was 8.45%. For the same compound, the cytotoxicity at 50 µM [3] was 11.6%, the cytotoxicity at 1 µM [4] was < 5% and the cytotoxicity at 10 µM [5] was < 5%. For the same compound, the cytotoxicity at 50 µM [6] was 7.21%, the Activity (Mus musculus [9]) was “Non-Toxic” and the Activity (Mus musculus [10]) was “Non-Toxic”. It also gave an Activity (Mus musculus [11]) of 39.3 U/L, an Activity (Mus musculus [12]) of 105 U/L and an Activity (Mus musculus [13]) of 41.9 U/L. The Activity (Mus musculus [14]) was 110 U/L.

For `COC(=O)c1cc(OC)c2c(c1-c1c(C(=O)NCCCCCCCCCCCCNc3c4c(nc5ccccc35)CCCC4)cc(OC)c3c1OCO3)OCO2`, the IC50 (Acetylcholinesterase) was 52.1 nM, the IC50 (Cholinesterase) was 35.3 nM and the cytotoxicity at 1 µM [1] was 7.35%. The cytotoxicity at 10 µM [2] was 13.8%, the cytotoxicity at 50 µM [3] was 46.1% and the cytotoxicity at 1 µM [4] was < 5%. For the same compound, the cytotoxicity at 10 µM [5] was < 5% and the cytotoxicity at 50 µM [6] was 7.76%.

For `COC(=O)c1cc(OC)c2c(c1-c1c(C(=O)NCCCCCCCCCCNc3c4c(nc5ccccc35)CCCC4)cc(OC)c3c1OCO3)OCO2`, the IC50 (Acetylcholinesterase) was 27.3 nM, the IC50 (Cholinesterase) was 8.63 nM and the inhibition [15] was “Active”. For the same compound, the inhibition [16] was “Active”, the cytotoxicity at 1 µM [1] was 6.71% and the cytotoxicity at 10 µM [2] was 10.8%. For the same compound, the cytotoxicity at 50 µM [3] was 23.1%, the cytotoxicity at 1 µM [4] was < 5% and the cytotoxicity at 10 µM [5] was < 5%. For the same compound, the cytotoxicity at 50 µM [6] was 7.84%, the Activity (L02 [17]) was “Non-Toxic” and the Activity (L02 [18]) was 14.1%. For the same compound, the Activity (Mus musculus [9]) was “Non-Toxic”, the “fold change (FC)” value (Mus musculus [19]) was 1.1 and the “fold change (FC)” value (Mus musculus [20]) was 1.1. The Activity (Mus musculus [21]) was “Active”, the Activity (Mus musculus [22]) was “Non-Toxic” and the Activity (Mus musculus [23]) was “Non-Toxic”.

With `COC(=O)c1cc(OC)c2c(c1-c1c(C(=O)NCCCCCCNc3c4c(nc5ccccc35)CCCC4)cc(OC)c3c1OCO3)OCO2` the IC50 (Acetylcholinesterase) was 616 nM, the IC50 (Cholinesterase) was 4.02 nM and the cytotoxicity at 1 µM [1] was < 5%. For the same compound, the cytotoxicity at 10 µM [2] was < 5%, the cytotoxicity at 50 µM [3] was 34.4% and the cytotoxicity at 1 µM [4] was 5.26%. The cytotoxicity at 10 µM [5] was < 5% and the cytotoxicity at 50 µM [6] was 27.3%.

With `COc1cc(/C=C/C(=O)CC(=O)/C=C/c2ccc(O)c(OC)c2)ccc1O` the inhibition [16] was “Active”.

`COC(=O)c1cc(OC)c2c(c1-c1c(C(=O)NCCCCCCCCNc3c4c(nc5ccccc35)CCCC4)cc(OC)c3c1OCO3)OCO2` gave an IC50 (Acetylcholinesterase) of 945 nM, an IC50 (Cholinesterase) of 6.5 nM and a cytotoxicity at 1 µM [1] of 5.81%. The cytotoxicity at 10 µM [2] was 9.53%, the cytotoxicity at 50 µM [3] was 51.9% and the cytotoxicity at 1 µM [4] was < 5%. For the same compound, the cytotoxicity at 10 µM [5] was < 5% and the cytotoxicity at 50 µM [6] was 38.9%.
